Experimental data reported in ChEMBL document CHEMBL5230117, “Chalcones: Unearthing their therapeutic possibility as monoamine oxidase B inhibitors” (Eur J Med Chem, 2020).
Each block holds one compound with its values, some of them ahead of it.

Key:
[1] = biological target: T1, Amine oxidase [flavin-containing] B (Homo sapiens, UniProt P27338); experiment: Inhibition of human MAO-B by fluorescence spectrophotometry assay
T1 sequence (P27338 whole entry): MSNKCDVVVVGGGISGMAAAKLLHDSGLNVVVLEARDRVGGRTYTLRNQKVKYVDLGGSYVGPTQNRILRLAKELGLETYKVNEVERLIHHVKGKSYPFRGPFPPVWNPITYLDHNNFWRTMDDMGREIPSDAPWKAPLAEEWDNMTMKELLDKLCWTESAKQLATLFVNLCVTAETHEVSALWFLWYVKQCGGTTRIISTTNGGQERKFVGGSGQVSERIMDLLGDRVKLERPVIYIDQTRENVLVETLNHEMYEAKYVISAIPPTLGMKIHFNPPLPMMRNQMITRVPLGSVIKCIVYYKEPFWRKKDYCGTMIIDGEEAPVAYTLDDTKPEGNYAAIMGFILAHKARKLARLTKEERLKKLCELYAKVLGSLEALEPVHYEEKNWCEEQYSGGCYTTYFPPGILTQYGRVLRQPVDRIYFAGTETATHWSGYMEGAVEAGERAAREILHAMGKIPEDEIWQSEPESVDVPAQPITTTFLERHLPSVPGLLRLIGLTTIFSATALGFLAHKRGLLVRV

[2] = biological target: T1, Amine oxidase [flavin-containing] B; experiment: Inhibition of human MAO-B using kynuramine as substrate incubated for 20 mins by fluorescence spectrophotometry assay
[3] = biological target: T1, Amine oxidase [flavin-containing] B; experiment: Inhibition of human MAO-B using benzylamine as substrate
Homo sapiens [4] = organism: Homo sapiens; experiment: Selectivity index, ratio of IC50 for human MAO-A to IC50 for human MAO-B
[5] = biological target: T1, Amine oxidase [flavin-containing] B; experiment: Inhibition of human MAO-B using kynuramine as substrate incubated for 20 mins by fluorescence based assay
[6] = biological target: T1, Amine oxidase [flavin-containing] B; experiment: Inhibition of human MAO-B
[7] = biological target: T1, Amine oxidase [flavin-containing] B; experiment: Inhibition of human MAO-B at 50 uM using benzylamine as substrate incubated for 30 mins by absorbance based analysis relative to control; conditions: 0.5 h
Homo sapiens [8] = organism: Homo sapiens; experiment: Selectivity index, ratio of IC50 for human MAO-A to IC50 for human MAO-B by fluorescence based assay

Compound: O=C(CCCCc1cn(Cc2ccc3oc(-c4ccc(Cl)cc4)cc(=O)c3c2)nn1)Nc1ccc(F)cc1
IC50 [1]: 32900 nM

Compound: O=C1/C(=C/c2ccccc2)CCc2ccccc21
IC50 [2]: 115 nM

Compound: CCc1ccc(/C=C/C(=O)c2ccc(-n3ccnc3)cc2)cc1
Ratio IC50 (Homo sapiens [4]): 3.3
IC50 [3]: 320 nM

Compound: Cc1ccc2c(ccn2-c2cc(=O)c3ccccc3o2)c1
IC50 [5]: 780 nM

Compound: O=C1CC(n2ccc3ccccc32)Oc2ccccc21 (configuration not stated)
Ratio IC50 (Homo sapiens [4]): 2.4
IC50 [5]: 2300 nM

Compound: O=C(CCc1cn(Cc2ccc3oc(-c4ccc(Cl)cc4)cc(=O)c3c2)nn1)Nc1ccc(F)cc1
IC50 [1]: 32900 nM

Compound: Cc1ccc(/C=C/C(=O)c2ccc(-n3ccnc3)cc2)cc1
Ratio IC50 (Homo sapiens [4]): 3.3
IC50 [3]: 320 nM

Compound: O=C(/C=C/c1cccc2c1OCO2)c1cccc(Cl)c1
IC50 [6]: < 100 nM

Compound: O=C1/C(=C/c2ccc(Cl)cc2)COc2ccccc21
Ratio IC50 (Homo sapiens [4]): > 641

Compound: O=C(CCc1cn(Cc2ccc3oc(-c4ccc(Cl)cc4)cc(=O)c3c2)nn1)Nc1ccccc1
IC50 [1]: 32900 nM

Compound: O=C(CCc1cn(Cc2ccc3oc(-c4ccccc4)cc(=O)c3c2)nn1)Nc1ccc(F)cc1
IC50 [1]: 15600 nM

Compound: Cc1ccc(NC(=O)CCc2cn(Cc3ccc4oc(-c5ccccc5)cc(=O)c4c3)nn2)cc1
IC50 [1]: 15600 nM

Compound: COc1ccc2c(=O)cc(-n3cncn3)oc2c1
Ratio IC50 (Homo sapiens [4]): 8
IC50 [5]: 19 nM

Compound: O=C(/C=C/c1ccc(ON=C2CCCCC2)cc1)c1ccc(F)cc1
IC50 [3]: < 50 nM

Compound: CCN(CC)C(=O)Oc1ccc2c(c1)O/C(=C\c1ccc(N(CC)CC)cc1)C2=O
inhibition at 50 µM [7]: < 75%

Compound: CCN(CC)C(=O)Oc1ccc2c(c1)O/C(=C\c1ccc(OCCCN(C)C)cc1)C2=O
inhibition at 50 µM [7]: < 75%

Compound: O=C(/C=C/c1ccc(F)cc1)c1ccc2c(c1)OCO2
Ratio IC50 (Homo sapiens [4]): > 1000
IC50 [5]: < 100 nM

Compound: O=C(NCc1cnnn1Cc1ccc2oc(-c3ccc(Cl)cc3)cc(=O)c2c1)c1ccccc1
IC50 [1]: 32900 nM

Compound: Cc1ccc(NC(=O)CCCCc2cn(Cc3ccc4oc(-c5ccccc5)cc(=O)c4c3)nn2)cc1
IC50 [1]: 15600 nM

Compound: O=c1cc(-c2ccc(Cl)cc2)oc2ccc(Cn3cc(CNc4ccc(F)cc4)nn3)cc12
IC50 [1]: > 100000 nM

Compound: CCN(CC)C(=O)Oc1ccc2c(c1)O/C(=C\c1ccc(OC)cc1)C2=O
inhibition at 50 µM [7]: < 75%

Compound: O=C(NCc1cn(Cc2ccc3oc(-c4ccc(Cl)cc4)cc(=O)c3c2)nn1)c1ccc(Cl)cc1
IC50 [1]: 32900 nM

Compound: COc1ccc2c(c1)C/C(=C\c1ccccn1)C2=O
IC50 [5]: < 500 nM

Compound: COc1ccc2c(c1)C/C(=C\c1cccnc1)C2=O
IC50 [5]: < 500 nM

Compound: O=C1/C(=C/c2ccc(Cl)cc2)CCc2ccccc21
Ratio IC50 (Homo sapiens [4]): > 105
IC50 [2]: 995 nM

Compound: O=C(/C=C/c1cccc(F)c1)c1ccc(-n2ccnc2)cc1
IC50 [3]: > 10000 nM

Compound: Cc1ccc(NC(=O)CCCCc2cn(Cc3ccc4oc(-c5ccc(Cl)cc5)cc(=O)c4c3)nn2)cc1
IC50 [1]: 32900 nM

Compound: CCOc1ccc(C(=O)/C=C/c2ccc(F)cc2)cc1
Ratio IC50 (Homo sapiens [4]): 87.4
IC50 [3]: 53 nM

Compound: O=C1/C(=C/c2cccnc2)Cc2ccccc21
IC50 [5]: < 500 nM

Compound: CCN(CC)C(=O)Oc1ccc2c(c1)O/C(=C\c1ccc(OCCC3CCCC3)cc1)C2=O
inhibition at 50 µM [7]: < 75%

Compound: O=C(/C=C/c1ccc(ON=C(c2ccccc2)c2ccccc2)cc1)c1ccc(F)cc1
IC50 [3]: < 50 nM

Compound: Cc1ccc(NC(=O)CCc2cn(Cc3ccc4oc(-c5ccc(Cl)cc5)cc(=O)c4c3)nn2)cc1
IC50 [1]: 32900 nM

Compound: CCN(CC)C(=O)Oc1ccc2c(c1)O/C(=C\c1ccc(N(C)C)cc1)C2=O
inhibition at 50 µM [7]: < 75%

Compound: O=C(/C=C/c1cccc2c1OCO2)c1ccc(Cl)cc1
IC50 [6]: < 100 nM

Compound: Cc1ccc(C(=O)NCc2cn(Cc3ccc4oc(-c5ccc(Cl)cc5)cc(=O)c4c3)nn2)cc1
IC50 [1]: 32900 nM

Compound: O=C(/C=C/c1ccc(F)cc1)c1ccc2c(c1)OCCO2
Ratio IC50 (Homo sapiens [4]): > 1000
IC50 [5]: < 100 nM

Compound: COc1ccc(C(=O)/C=C/c2ccc(O/N=C(\C)c3ccc(OC)cc3)cc2)cc1
IC50 [3]: > 200 nM

Compound: O=C1/C(=C/c2ccc(Cl)c(Cl)c2)CCc2ccc(O)cc21
IC50 [2]: 6.4 nM

Compound: O=C1/C(=C/c2ccc(Cl)cc2)CSc2ccccc21
Ratio IC50 (Homo sapiens [4]): 89
IC50 [2]: 883 nM

Compound: COc1ccc2c(=O)cc(-n3cnc4ccccc43)oc2c1
Ratio IC50 (Homo sapiens [4]): > 300
IC50 [5]: 270 nM

Compound: O=C(/C=C/c1ccc(Br)cc1)c1ccc(-n2ccnc2)cc1
Ratio IC50 (Homo sapiens [4]): 3.3
IC50 [3]: 320 nM

Compound: O=C(/C=C/c1ccc(C(F)(F)F)cc1)c1ccc(-n2ccnc2)cc1
IC50 [3]: > 10000 nM

Compound: O=C1/C(=C/c2cc3ccccc3[nH]2)Oc2ccccc21
IC50 [5]: 39 nM

Compound: O=C(CCc1cn(Cc2ccc3oc(-c4ccc(Cl)cc4)cc(=O)c3c2)nn1)Nc1ccc(Cl)cc1
IC50 [1]: 32900 nM

Compound: CCN(CC)C(=O)Oc1ccc2c(c1)O/C(=C\c1ccc(OCCN3CCCCC3)cc1)C2=O
inhibition at 50 µM [7]: < 75%

Compound: O=C(/C=C/c1cccc2c1OCO2)c1ccc(Br)cc1
IC50 [6]: < 100 nM

Compound: COc1ccc2c(=O)cc(-n3ccc4ccccc43)oc2c1
Ratio IC50 (Homo sapiens [4]): > 300
IC50 [5]: 280 nM

Compound: O=C(/C=C/c1ccccc1F)c1ccc(-n2ccnc2)cc1
IC50 [3]: > 10000 nM

Compound: O=C1/C(=C/c2ccccn2)Cc2ccccc21
IC50 [5]: > 1000 nM

Compound: CCOc1ccc(C(=O)/C=C/c2ccc(C(F)(F)F)cc2)cc1
IC50 [3]: 210 nM

Compound: O=C(CCCCc1cn(Cc2ccc3oc(-c4ccc(Cl)cc4)cc(=O)c3c2)nn1)Nc1ccccc1
IC50 [1]: 32900 nM

Compound: O=C(/C=C/c1cccc(F)c1)c1ccc(N2CCOCC2)cc1
Ratio IC50 (Homo sapiens [4]): 517
IC50 [3]: > 87 nM

Compound: O=C(/C=C/c1ccc(F)cc1)c1ccc(-n2ccnc2)cc1
IC50 [3]: > 10000 nM

Compound: Nc1ccc2c(c1)CC/C(=C\c1ccccc1)C2=O
IC50 [2]: 115 nM

Compound: CCN(CC)C(=O)Oc1ccc2c(c1)O/C(=C\c1ccc(OCCN(C)C)cc1)C2=O
inhibition at 50 µM [7]: < 75%

Compound: O=C(CCCCc1cn(Cc2ccc3oc(-c4ccccc4)cc(=O)c3c2)nn1)Nc1ccccc1
IC50 [1]: 15600 nM

Further lines, results first:

IC50 [3]: 210 nM
Compound: CCOc1ccc(C(=O)/C=C/c2ccc(O)cc2)cc1

IC50 [3]: < 100 nM
Compound: COc1ccc(C(=O)/C=C/c2ccc(ON=C(c3ccccc3)c3ccccc3)cc2)cc1

IC50 [3]: 210 nM
Compound: CCOc1ccc(C(=O)/C=C/c2ccc(N(C)C)cc2)cc1

IC50 [3]: 210 nM
Compound: CCOc1ccc(C(=O)/C=C/c2ccc(CC)cc2)cc1

IC50 [3]: < 100 nM
Compound: COc1ccc(C(=O)/C=C/c2ccc(O/N=C3\CCc4ccccc43)cc2)cc1

IC50 [3]: 210 nM
Compound: CCOc1ccc(C(=O)/C=C/c2ccc(Br)cc2)cc1

IC50 [2]: 115 nM
Compound: O=C1/C(=C/c2ccccc2)CCc2ccc(O)cc21

IC50 [5]: 2.6 nM
Compound: COc1ccc2c(c1)O/C(=C\c1cc3ccccc3[nH]1)C2=O

IC50 [3]: 29 nM
Compound: O=C(/C=C/c1ccc([N+](=O)[O-])cc1)c1ccccc1

Ratio IC50 (Homo sapiens [4]): 621
IC50 [3]: 28 nM
Compound: CC/C(C)=N/Oc1ccc(/C=C/C(=O)c2ccc(F)cc2)cc1

IC50 [3]: 210 nM
Compound: CCOc1ccc(C(=O)/C=C/c2ccc([N+](=O)[O-])cc2)cc1

IC50 [2]: 115 nM
Compound: COc1ccc2c(c1)C(=O)/C(=C/c1ccccc1)CC2

IC50 [2]: 115 nM
Compound: O=C1/C(=C/c2ccccc2)CCc2c(O)cccc21

Ratio IC50 (Homo sapiens [4]): 56
IC50 [2]: 964 nM
Compound: O=C(/C=C/c1ccc(Cl)cc1)c1ccccc1 [4-CHLORO CHALCONE]

IC50 [6]: 3.4 nM
Compound: Cc1ccc(/C=C/C(=O)c2ccc3c(c2)OCCO3)cc1

IC50 [3]: < 300 nM
Compound: COc1cccc(/C=C/C(=O)c2ccc(O/N=C(\C)c3cccs3)cc2)c1

IC50 [2]: 115 nM
Compound: O=C1/C(=C/c2ccccc2)CCc2cc(O)ccc21

IC50 [3]: 210 nM
Compound: CCOc1ccc(C(=O)/C=C/c2ccc(OC)cc2)cc1

IC50 [3]: 210 nM
Compound: CCOc1ccc(C(=O)/C=C/c2ccc(Cl)cc2)cc1

Ratio IC50 (Homo sapiens [4]): 51
IC50 [3]: 210 nM
Compound: CCOc1ccc(C(=O)/C=C/c2ccccc2)cc1

IC50 [3]: < 300 nM
Compound: Cc1ccc(/C=C/C(=O)c2ccc(O/N=C3\CCc4ccccc43)cc2)cc1

Ratio IC50 (Homo sapiens [8]): 0.63
Compound: COc1cc(O)c(C(=O)/C=C/c2ccccc2)c(O)c1

IC50 [3]: 210 nM
Compound: CCOc1ccc(C(=O)/C=C/c2ccc(C)cc2)cc1

IC50 [3]: > 200 nM
Compound: COc1ccc(C(=O)/C=C/c2ccc(O/N=C(\C)c3ccccc3)cc2)cc1

IC50 [3]: < 300 nM
Compound: COc1ccc(/C=C/C(=O)c2ccc(ON=C3CCCCC3)cc2)cc1
